# Assay results: PubChem BioAssay (NCI)
#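 96-well plates; 48 h exposure; 5 concentrations. Endpoints by linear interpolation between flanking doses. Not reached: highest tested concentration assigned. At the TGI there is no net growth.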
# Assays:
# Assay in all cases: NCI anticancer screen, dose series, 48 h
# 786-0 renal = system: 786-0 renal
# A498 renal = system: A498 renal
# A549 NSCLC = system: A549 NSCLC
# ACHN renal = system: ACHN renal
# CAKI-1 renal = system: CAKI-1 renal
# CCRF-CEM leukemia = system: CCRF-CEM leukemia
# COLO 205 colon = system: COLO 205 colon
# DMS 114 small cell lung = system: DMS 114 small cell lung
# DMS 273 small cell lung = system: DMS 273 small cell lung
# EKVX NSCLC = system: EKVX NSCLC
# HCT-116 colon = system: HCT-116 colon
# HCT-15 colon = system: HCT-15 colon
# HT29 colon = system: HT29 colon
# IGROV1 ovarian = system: IGROV1 ovarian
# K-562 leukemia = system: K-562 leukemia
# KM20L2 colon = system: KM20L2 colon
# LXFL 529 NSCLC = system: LXFL 529 NSCLC
# M14 melanoma = system: M14 melanoma
# M19-MEL melanoma = system: M19-MEL melanoma
# MALME-3M melanoma = system: MALME-3M melanoma
# MOLT-4 leukemia = system: MOLT-4 leukemia
# NCI-H522 lung = system: NCI-H522 lung
# OVCAR-4 ovarian = system: OVCAR-4 ovarian
# OVCAR-5 ovarian = system: OVCAR-5 ovarian
# OVCAR-8 ovarian = system: OVCAR-8 ovarian
# RXF 393 renal = system: RXF 393 renal
# SF-295 CNS = system: SF-295 CNS
# SF-539 CNS = system: SF-539 CNS
# SK-MEL-5 melanoma = system: SK-MEL-5 melanoma
# SK-OV-3 ovarian = system: SK-OV-3 ovarian
# SN12C renal = system: SN12C renal
# SNB-75 CNS = system: SNB-75 CNS
# SW-620 colon = system: SW-620 colon
# TK-10 renal = system: TK-10 renal
# U251 CNS = system: U251 CNS
# UACC-257 melanoma = system: UACC-257 melanoma
# UO-31 renal = system: UO-31 renal
# XF 498 CNS = system: XF 498 CNS
# DLD-1 colon = system: DLD-1 colon
# HCC-2998 colon = system: HCC-2998 colon
# HL-60(TB) leukemia = system: HL-60(TB) leukemia
# HOP-62 NSCLC = system: HOP-62 NSCLC
# KM12 colon = system: KM12 colon
# LOX IMVI melanoma = system: LOX IMVI melanoma
# NCI-H226 lung = system: NCI-H226 lung
# NCI-H23 lung = system: NCI-H23 lung
# NCI-H460 lung = system: NCI-H460 lung
# OVCAR-3 ovarian = system: OVCAR-3 ovarian
# RPMI-8226 leukemia = system: RPMI-8226 leukemia
# SF-268 CNS = system: SF-268 CNS
# SK-MEL-2 melanoma = system: SK-MEL-2 melanoma
# SK-MEL-28 melanoma = system: SK-MEL-28 melanoma
# SNB-19 CNS = system: SNB-19 CNS
# SNB-78 CNS = system: SNB-78 CNS
# UACC-62 melanoma = system: UACC-62 melanoma
smiles,measurement,setting,value
CCCCCCCCCCNCCSSCc1ccc(Cl)cc1,TGI,786-0 renal,24.2 µM
same,TGI,A498 renal,28.4 µM
same,TGI,A549 NSCLC,3.59 µM
same,TGI,ACHN renal,18.5 µM
same,TGI,CAKI-1 renal,7.15 µM
same,TGI,CCRF-CEM leukemia,4.87 µM
same,TGI,COLO 205 colon,5.95 µM
same,TGI,DMS 114 small cell lung,3.23 µM
same,TGI,DMS 273 small cell lung,2.99 µM
same,TGI,EKVX NSCLC,5.14 µM
same,TGI,HCT-116 colon,3.14 µM
same,TGI,HCT-15 colon,6.54 µM
same,TGI,HT29 colon,3.74 µM
same,TGI,IGROV1 ovarian,7.62 µM
same,TGI,K-562 leukemia,5.27 µM
same,TGI,KM20L2 colon,3.07 µM
same,TGI,LXFL 529 NSCLC,2.9 µM
same,TGI,M14 melanoma,1.17 µM
same,TGI,M19-MEL melanoma,3.58 µM
same,TGI,MALME-3M melanoma,7.69 µM
same,TGI,MOLT-4 leukemia,3.08 µM
same,TGI,NCI-H522 lung,3.18 µM
same,TGI,OVCAR-4 ovarian,3.09 µM
same,TGI,OVCAR-5 ovarian,3.72 µM
same,TGI,OVCAR-8 ovarian,3.8 µM
same,TGI,RXF 393 renal,11.6 µM
same,TGI,SF-295 CNS,4.79 µM
same,TGI,SF-539 CNS,3.64 µM
same,TGI,SK-MEL-5 melanoma,1.88 µM
same,TGI,SK-OV-3 ovarian,8.22 µM
same,TGI,SN12C renal,3.86 µM
same,TGI,SNB-75 CNS,20.6 µM
same,TGI,SW-620 colon,3.02 µM
same,TGI,TK-10 renal,4.04 µM
same,TGI,U251 CNS,10.2 µM
same,TGI,UACC-257 melanoma,2.31 µM
same,TGI,UO-31 renal,4.84 µM
same,TGI,XF 498 CNS,5.22 µM
COc1ccc2c(c1)Oc1cc(O)ccc1[C@H]2c1ccccc1C(=O)NC(C)c1ccccc1 (stereo partly specified),TGI,786-0 renal,34.9 µM
same,TGI,A498 renal,30.8 µM
same,TGI,A549 NSCLC,31.5 µM
same,TGI,ACHN renal,29.8 µM
same,TGI,CAKI-1 renal,33.7 µM
same,TGI,CCRF-CEM leukemia,72.7 µM
same,TGI,COLO 205 colon,31.3 µM
same,TGI,DLD-1 colon,43.4 µM
same,TGI,DMS 114 small cell lung,24.9 µM
same,TGI,DMS 273 small cell lung,28.4 µM
same,TGI,EKVX NSCLC,33.5 µM
same,TGI,HCC-2998 colon,30.3 µM
same,TGI,HCT-116 colon,26.5 µM
same,TGI,HCT-15 colon,35.5 µM
same,TGI,HL-60(TB) leukemia,44.1 µM
same,TGI,HOP-62 NSCLC,44.6 µM
same,TGI,HT29 colon,41.5 µM
same,TGI,IGROV1 ovarian,31.5 µM
same,TGI,K-562 leukemia,> 100 µM
same,TGI,KM12 colon,36.5 µM
same,TGI,KM20L2 colon,35.3 µM
same,TGI,LOX IMVI melanoma,31.6 µM
same,TGI,LXFL 529 NSCLC,28.7 µM
same,TGI,M14 melanoma,26.1 µM
same,TGI,M19-MEL melanoma,29.4 µM
same,TGI,MALME-3M melanoma,46.2 µM
same,TGI,MOLT-4 leukemia,64.8 µM
same,TGI,NCI-H226 lung,38.8 µM
same,TGI,NCI-H23 lung,32.5 µM
same,TGI,NCI-H460 lung,26.8 µM
same,TGI,NCI-H522 lung,28 µM
same,TGI,OVCAR-3 ovarian,29.4 µM
same,TGI,OVCAR-5 ovarian,29.4 µM
same,TGI,OVCAR-8 ovarian,36 µM
same,TGI,RPMI-8226 leukemia,23.6 µM
same,TGI,RXF 393 renal,42 µM
same,TGI,SF-268 CNS,45.8 µM
same,TGI,SF-295 CNS,25.9 µM
same,TGI,SF-539 CNS,29.7 µM
same,TGI,SK-MEL-2 melanoma,82.2 µM
same,TGI,SK-MEL-28 melanoma,34.7 µM
same,TGI,SK-MEL-5 melanoma,29.2 µM
same,TGI,SK-OV-3 ovarian,39.3 µM
same,TGI,SN12C renal,31.6 µM
same,TGI,SNB-19 CNS,33 µM
same,TGI,SNB-75 CNS,35 µM
same,TGI,SNB-78 CNS,33.5 µM
same,TGI,SW-620 colon,35.6 µM
same,TGI,TK-10 renal,50.4 µM
same,TGI,U251 CNS,29.4 µM
same,TGI,UACC-257 melanoma,37.3 µM
same,TGI,UACC-62 melanoma,24.8 µM
same,TGI,UO-31 renal,25.5 µM
